Experimental findings from US20230011571A1, “SMALL MOLECULE FURIN INHIBITORS FOR TREATING INFECTIOUS DISEASES” (BP Asset V, Inc., priority 2019, published 2023) are described below.

Converted amounts (≈) assume the structure as drawn. Read-outs that look alike come from different tables or passages of the source.

What all share (assay type): cell-based
The test system of test [1] is Chikungunya virus (CHIKV). The experiment in a line: microbe, parasite or virus in culture. As to conditions: Chikungunya virus, Vero, 48 h, read-out: Percent viral inhibition CHKV.
In test [2] the test system is Venezuelan equine encephalitis (TC-83; Vero 76). The experiment in a line: cells.
Test [3] deals with Respiratory syncytial virus (A2; RD). The experiment in a line: In vitro viral inhibition, Respiratory syncytial virus. As to conditions: human respiratory syncytial virus. Here is the method: (§1) In vitro studies of the antiviral activity were also carried out for several viruses using Example 369.
For test [4], the system named is Yellow Fever (YFV 17D; Huh7). The experiment in a line: microbe, parasite or virus in culture.
Test [5] concerns Western equine encephalitis (California; Vero 76). The experiment in a line: cells.
The next test concerns Marburg virus (MARV). The experiment in a line: organism not typed. Conditions: Vero, 72 h, read-out: Percent viral inhibition MARV.
The test system of test [6] is Eastern equine encephalitis (FL39-939; Vero 76). The experiment in a line: cells.
Test [7] concerns Dengue Virus 2 (New Guinea C; Huh7). The experiment in a line: In vitro viral inhibition, Dengue Virus 2.
Test [8] concerns Japanese encephalitis virus (SA-14; Vero 76). The experiment in a line: In vitro viral inhibition, Japanese encephalitis virus.
In the next test the test system is dengue virus (DENV). The experiment in a line: microbe, parasite or virus in culture. Conditions: Dengue virus, Vero, 120 h, read-out: Percent viral inhibition DENY.
Test [9] relates to Chikungunya (S27; Vero 76). The experiment in a line: In vitro viral inhibition, Chikungunya. Conditions: Chikungunya virus.
The test system of another test is Measles (CC; Vero 76). The experiment in a line: In vitro viral inhibition, Measles. As to conditions: Measles morbillivirus, strain CC, Vero 76 cells. Here is the method:
as §1

The subject of test [10] is Powassan virus (LB; BHK-21). The experiment in a line: microbe, parasite or virus in culture.
Test [11] deals with Usutu virus (TC-508; Vero 76). The experiment in a line: In vitro viral inhibition, Usutu virus. As to conditions: strain TC-508, Vero 76 cells. Here is the method: as §1
The test system of test [12] is Mayaro virus (BE AR 505411; Vero 76). The experiment in a line: In vitro viral inhibition, Mayaro virus. Conditions: strain BE AR 505411, Vero 76 cells. Here is the method: as §1
The mark [13] stands for this setting: Vero 76, read-out: EC50 (ug/mL) (Neutral Red (NR) Assay).
The mark [14] stands for this setting: Vero 76, read-out: EC50 (ug/mL) (VIS Drug Assay).
The mark [15] stands for this setting: Huh-7, read-out: EC50 (ug/mL) (Neutral Red (NR) Assay).
Where [16] appears, read: Huh-7, read-out: EC50 (ug/mL) (VIS Drug Assay).
[17] abbreviates: Neutral Red assay, read-out: EC50 (ug/mL) (Neutral Red (NR) Assay).
Setting [18] is: VIS assay, read-out: EC50 (ug/mL) (VIS Drug Assay).

For orientation: inhibition means the share of the control response that was lost under treatment.

As to `CC(=O)NCC1CCN(Cc2cc(Oc3cnc(N4CCN(CCC(C)C(=O)O)CC4)nc3)nc(-c3cc(Cl)cc(Cl)c3)c2)CC1` (stereo not drawn) [Example 369, 4-(4-(5-((4-((4-(acetamidomethyl)piperidin-1-yl)methyl)-6-(3,5-dichlorophenyl)pyridin-2-yl)oxy)pyrimidin-2-yl)piperazin-1-yl)-2-methylbutanoic acid], the inhibition at 1 µM in test [1] is 32.9%; in the test with Marburg virus (MARV), 47.1%; in the test with dengue virus (DENV), 33.3%. Also, the EC50 in [2] (setting [13]) turned out to be 0.77 µg/mL (≈ 1.15 µM); in test [2] (setting [14]), 0.55 µg/mL (≈ 0.82 µM); in test [3] (read-out: EC50 (ug/mL) (Neutral Red (NR) Assay)), 0.3 µg/mL (≈ 0.447 µM); in [3] (read-out: EC50 (ug/mL) (VIS Drug Assay)), 28 µg/mL (≈ 41.8 µM); in test [4] (setting [15]), 0.18 µg/mL (≈ 0.268 µM); in [4] (setting [16]) it was 0.18 µg/mL (≈ 0.268 µM). Also, the EC50 in [5] (setting [13]), in [5] (setting [14]), in test [6] (setting [13]), in [6] (setting [14]), in test [7] (setting [15]) and in test [7] (setting [16]) was < 0.1 µg/mL throughout. Besides, the EC50 in [8] (setting [13]) is 3 µg/mL (≈ 4.47 µM); in [8] (setting [14]), 0.32 µg/mL (≈ 0.477 µM); in test [9] (setting [13]) it was 0.18 µg/mL (≈ 0.268 µM); in test [9] (setting [14]) it was 0.12 µg/mL (≈ 0.179 µM); in the test on Measles (CC; Vero 76) (setting [17]), < 0.1 µg/mL; in the test with Measles (CC; Vero 76) (setting [18]), < 0.1 µg/mL. The EC50 in [10] (BHK-21, read-out: EC50 (ug/mL) (Neutral Red (NR) Assay)) is < 0.1 µg/mL; in test [10] (BHK-21, read-out: EC50 (ug/mL) (VIS Drug Assay)), < 0.1 µg/mL; in test [11] (setting [17]), 5.8 µg/mL (≈ 8.65 µM); in test [11] (setting [18]), 2.7 µg/mL (≈ 4.03 µM); in test [12] (setting [17]), 0.28 µg/mL (≈ 0.418 µM); in [12] (setting [18]), 0.32 µg/mL (≈ 0.477 µM).
With `CC(=O)NCC1CCN(Cc2cc(Oc3cnc(N4CCN(CCC(N)=O)CC4)cn3)nc(-c3cc(Cl)cc(Cl)c3)c2)CC1` [Example 391], the values for the inhibition at 1 µM (in [1]; in the test with Marburg virus (MARV); in the test on dengue virus (DENV)) were 14%, 35.4% and 51.4%, respectively.
Take `CCC(=O)NCC1CCN(Cc2cc(Oc3cnc(N4CCN(CCC(C)C(=O)O)CC4)cn3)nc(-c3cc(Cl)cc(Cl)c3)c2)CC1` (stereo not drawn) [Example 392, 4-(4-(5-((6-(3,5-dichlorophenyl)-4-((4-(propionamidomethyl)piperidin-1-yl)methyl)pyridin-2-yl)oxy)pyrazin-2-yl)piperazin-1-yl)-2-methylbutanoic acid]: the values for the inhibition at 1 µM (in test [1]; with Marburg virus (MARV); in the test on dengue virus (DENV)) were 15.8%, 60.6% and 34.9%, respectively.
The corresponding values for `COC(=O)NCC1CCN(Cc2cc(Oc3cnc(N4CCN(C)CC4)cn3)nc(-c3cc(Cl)cc(Cl)c3)c2)CC1` [Example 395, methyl((1-((2-(3,5-dichlorophenyl)-6-((5-(4-methylpiperazin-1-yl)pyrazin-2-yl)oxy)pyridin-4-yl)methyl)piperidin-4-yl)methyl)carbamate] are 0%, 37.2% and 88.2%.
The like results for `CC(=O)NCC1CCN(Cc2cc(Oc3cnc(N4CCN(CCC(C)C(=O)O)CC4)cn3)nc(-c3cc(Cl)cc(Cl)c3)c2)CC1` (stereo not drawn) [Example 396, 4-(4-(5-((4-((4-(acetamidomethyl)piperidin-1-yl)methyl)-6-(3,5-dichlorophenyl)pyridin-2-yl)oxy)pyrazin-2-yl)piperazin-1-yl)-2-methylbutanoic acid] were, in that order, 21.5%, 26.7% and 46.3%.
The like results for `CN1CCCN(c2ncc(Oc3cc(CN4CC[C@@H]5[C@H](CC4)[C@H]5C(=O)O)cc(-c4cc(Cl)cc(Cl)c4)n3)cn2)CC1` [Example 397, (1R,7S,8r)-4-((2-(3,5-dichlorophenyl)-6-((2-(4-methyl-1,4-diazepan-1-yl)pyrimidin-5-yl)oxy)pyridin-4-yl)methyl)-4-azabicyclo[5.1.0]octane-8-carboxylic acid] were, in that order, 25.1%, 46.2% and 38.7%.
